What all share (assay): Minimum inhibitory concentration (MIC)
What all share (type): cell-based

Experiment [1] has as its system Escherichia coli ATCC 11229. Conditions: strain EC.
Experiment [2] deals with Aspergillus niger ATCC 16404. Conditions: strain AN.
Experiment [3] concerns Staphylococcus aureus ATCC 6538. Conditions: strain SA.
The subject of experiment [4] is Pseudomonas aeruginosa ATCC 9027. As to conditions: strain PA.
For experiment [5], the system named is Candida albicans ATCC 10231. Conditions: strain CA.

Regarding zinc gluconate, the MIC is on record as 6250 ppm in experiment [1]; 6250 ppm in experiment [2]; 5000 ppm in experiment [3]; 12500 ppm in experiment [4]; 3120 ppm in experiment [5].

(Values after US20080096449A1, “USE OF METALLIC GLUCONATE SALTS IN THE PRODUCTION OF ANTIMICROBIALLY ACTIVE SUBSTRATES” (priority 2002, published 2008).)
